Data published in PMC2784635 (Bioorganic & medicinal chemistry, 2008).

Tested on: strobilurin resistant strain of Plasmopara viticola
Test: cross-resistance test on small vine plants in the glasshouse

COC(=O)CNC(=O)/C=C\C/C=C\NC(=O)/C=C(C)/C=C/[C@H](C)[C@H](OC)[C@H](C)[C@H](/C=C/c1ccccc1)OC [Compound 8, crocacin A]
cross-resistance to strobilurin resistant Plasmopara viticola: little or no cross-resistance
